{"source": "patent US20240216344A1", "about": "“THIAZOLIDINEDIONE ANALOGS FOR THE TREATMENT OF NAFLD AND METABOLIC DISEASES” (Cirius Therapeutics, Inc., priority 2019, published 2024)", "key": {"[1]": {"test_system": "mice fed a diet enriched in trans fat, cholesterol and fructose", "assay": "Preclinical NASH model: trans fat, cholesterol and fructose diet for 19 weeks, NAS and fibrosis histology", "assay_type": "in vivo", "settings": "30 mg/kg; treatment of the mice or isolated hepatocytes", "method": "Mice were fed a diet enriched in trans fat, cholesterol and fructose for 19 weeks to induce hepatic damage, which was assessed by histological changes in the NAS and fibrosis, measured by trichrome staining for collagen. MSDC-0602K (30 mg/kg) was given at either four weeks into the treatment or 16 weeks into the treatment as compared to the vehicle treated mice who were also on the modified diet. The results of mice who were kept on the normal diet are included for comparison. […] The signals for activation of the stellate cells and fibrosis are attenuated by treatment of the mice or isolated hepatocytes with MSDC-0602K."}, "[2]": {"test_system": "subjects with biopsy proven NASH with fibrosis and no cirrhosis", "assay": "EMMINENCE Phase 2b trial, interim analysis at six months", "assay_type": "in vivo, human", "settings": "for Peripheral edema present: 6 months", "description": "Detailed Description: This is a randomized, double-blinded study of three doses of MSDC-0602K or placebo given orally once daily to subjects with biopsy proven NASH with fibrosis and no cirrhosis. Visits to the clinic will be at baseline, 1, 2, 3, 6, 9, and 12 months, with one 2-week follow-up visit. Safety will be assessed by monitoring of vital signs, 12 lead electrocardiogram (ECG), physical examinations, safety labs, and adverse events (AEs).\nAn interim analysis of the EMMINENCE Phase 2b trial was conducted in the first 328 subjects who reached their six-month follow-up visit. […] In the two highest dose groups, at least 50% of patients with elevated baseline Alanine transaminase (ALT) or Aspartate Aminotransferase (AST) improved into the normal range at six months, as shown in Table 3.\nThe subjects included in this interim analysis had significant liver disease, as established by liver biopsy, with an average NAS at baseline of 5.3. […] Overall, baseline characteristics were well-balanced across treatment groups."}, "[3]": {"test_system": "patients with biopsy-confirmed NASH", "assay": "EMMINENCE post hoc multivariable models and canonical correlation of biomarker changes with histological changes", "design": "species or system human", "description": "EMMINENCE was a phase 2 study examining the effects of three doses of MSDC-0602K versus placebo on liver histology in 392 patients with biopsy-confirmed nonalcoholic steatohepatitis (NASH). Patients provided written informed consent, and the protocol and consent form were approved by applicable institutional review boards. Baseline and 12-month biopsies were scored by a single expert hepatopathologist using the NASH Clinical Research Network (CRN) scoring criteria. Fasting blood samples for routine clinical chemistry as well as frozen samples for biomarker assays were analyzed centrally. In this post hoc analysis, multivariable models and partial canonical correlation were used to examine the associations between changes in biomarkers and changes in histological scores from baseline to 12 months in the 339 patients with paired biopsies. The trial was registered on ClinicalTrials.gov (NCT02784444).\nIndividual patient data from the 339 subjects with paired biopsy results in EMMINENCE were used to construct univariable and multivariable ANCOVA models for the 12-month change in each histological component (steatosis, inflammation, ballooning, and fibrosis). Candidate predictors included age, sex, type 2 diabetes (T2D) history, and baseline and 12-month changes in weight and laboratory parameters (liver injury markers, cholesterols, insulin sensitivity markers, ELF, CK-18). Non-linearity of the association between each continuous predictor and each outcome was examined by assessing the significance of the non-linear components of a restricted cubic spline transformation for each predictor. Appropriate transformations (quadratic, cubic, linear spline, log 2) were applied where deemed necessary based on review of the Akaike's Information Criterion and visual examination of plots of the predicted outcomes against each predictor. Due to issues with estimating the associations when severe multicollinearity exists between predictors in the model, ALT (collinear with AST) and waist circumference (collinear with weight) were excluded as candidate predictors. Multiple imputation with ten imputed datasets and assuming multivariate normality was used to handle missing values. The occurrence of missing data for any of the predictors was relatively low ([…] missing one or more predictor values). Rubin's algorithm was used for average estimates for predictors across the imputed datasets. Backwards selection was used for each outcome, with predictors remaining in a majority of the ten imputed datasets at the 0.05 significance level (>5) included in the final model. Each model was adjusted for the baseline value of the outcome. If a change from baseline predictor was included in the final model, then the baseline value for the parameter was also included in the final model.\nA second multivariable model was fit for each outcome including the predictors found prognostic for any of the biopsy component changes. A multivariable ANCOVA model that included these predictors was run for NAS (the sum of ballooning, inflammation, and steatosis scores). Multivariable logistic regression models that included these predictors were also run for the binary outcomes of NASH resolution without worsening of fibrosis and fibrosis improvement without worsening of NASH.\nA partial canonical correlation using individual patient data from EMMINENCE examined the correlation of changes in weight, AST, HbA1c, GGT, CK-18 (taken together) with changes in ballooning, inflammation, steatosis, and fibrosis (taken together) adjusted for those baseline variables prognostic of any of the histological feature changes in the multivariable models in the 306 subjects with complete observed data for the variables involved. This analysis results in “canonical variates” that are linear combinations of the original sets of variables weighted in such a way as to maximize the correlation between them. […]"}, "[4]": {"settings": "effect size for a change of 20 in MSDC-0602K Dose, multivariable model with dose added"}, "[5]": {"settings": "effect size for a change of 20 in MSDC-0602K Dose, univariable model"}}, "data": [{"smiles": "COc1cccc(C(=O)COc2ccc(CC3SC(=O)NC3=O)cc2)c1", "note": "(centres unmarked) [MSDC-0602K]", "values": [{"measurement": "signals for activation of the stellate cells and fibrosis", "setting": "[1]", "value": "attenuated"}, {"measurement": "Peripheral edema present", "setting": "[2]; 62.5 mg", "value": 7.80, "unit": "%"}, {"measurement": "Percentage of patients with high baseline ALT who returned to normal range", "setting": "[2]; 62.5 mg, six months", "value": 29, "unit": "%"}, {"measurement": "Percentage of patients with high baseline AST who returned to normal range", "setting": "[2]; 62.5 mg, six months", "value": 36, "unit": "%"}, {"measurement": "Placebo-corrected reduction in ALT", "setting": "[2]; 125 mg cohort, six months", "value": 14.3, "unit": "U/L"}, {"measurement": "Placebo-corrected reduction in AST", "setting": "[2]; 125 mg cohort, six months", "value": 7.9, "unit": "U/L"}, {"measurement": "Peripheral edema present", "setting": "[2]; 125 mg", "value": 13.50, "unit": "%"}, {"measurement": "Percentage of patients with high baseline ALT who returned to normal range", "setting": "[2]; 125 mg, six months", "value": 60, "unit": "%"}, {"measurement": "Percentage of patients with high baseline AST who returned to normal range", "setting": "[2]; 125 mg, six months", "value": 50, "unit": "%"}, {"measurement": "Placebo-corrected reduction in ALT", "setting": "[2]; 250 mg cohort, six months", "value": 10.6, "unit": "U/L"}, {"measurement": "Placebo-corrected reduction in AST", "setting": "[2]; 250 mg cohort, six months, not significant", "value": 4, "unit": "U/L"}, {"measurement": "Peripheral edema present", "setting": "[2]; 250 mg", "value": 11.10, "unit": "%"}, {"measurement": "Percentage of patients with high baseline ALT who returned to normal range", "setting": "[2]; 250 mg, six months", "value": 56, "unit": "%"}, {"measurement": "Percentage of patients with high baseline AST who returned to normal range", "setting": "[2]; 250 mg, six months", "value": 52, "unit": "%"}, {"measurement": "fasting glucose, HbA1c, insulin levels, and HOMA-IR", "setting": "[2]; all subjects, 125 mg and 250 mg doses, six months", "value": "statistically significant improvements"}, {"measurement": "Adiponectin", "setting": "[2]; all treatment cohorts, dose dependent, six months", "value": "increased significantly"}, {"measurement": "overall adverse event rates", "setting": "[2]; placebo and all doses", "value": "similar"}, {"measurement": "effect on lipids", "setting": "[2]; six months", "value": "neutral effect"}, {"measurement": "patients with elevated baseline ALT or AST improved into the normal range", "setting": "[2]; two highest dose groups, six months", "value": "at least 50%"}, {"measurement": "C-Reactive Protein levels", "setting": "[2]; two lowest doses, six months", "value": "decrease"}, {"measurement": "Effect Size, change from baseline in steatosis, Multivariable Model", "setting": "[3]; MSDC-0602K Dose, multivariable model with dose added, size of change not given", "value": "−0.03"}, {"measurement": "Effect Size for a change of 20 in MSDC-0602K Dose; outcome change from baseline in fibrosis", "setting": "[3]; Multivariable model", "value": "−0.01"}, {"measurement": "Effect Size for change of 20 in MSDC-0602K Dose; outcome NAS", "setting": "[3]; Multivariable model", "value": "−0.03"}, {"measurement": "Effect Size for a change of 20 in MSDC-0602K Dose; outcome change from baseline in fibrosis", "setting": "[3]; Univariable Model", "value": "−0.02"}, {"measurement": "Effect Size, change from baseline in ballooning, Multivariable Model", "setting": "[3]; [4]", "value": "−0.02"}, {"measurement": "Effect Size, change from baseline in inflammation, Multivariable Model", "setting": "[3]; [4]", "value": 0.01}, {"measurement": "Effect Size, change from baseline in ballooning, Univariable Model", "setting": "[3]; [5]", "value": "−0.01"}, {"measurement": "Effect Size, change from baseline in inflammation, Univariable Model", "setting": "[3]; [5]", "value": "−0.01"}, {"measurement": "Effect Size, change from baseline in steatosis, Univariable Model", "setting": "[3]; [5]", "value": "−0.03"}]}]}
